Key:
Type in all cases: functional
COLO 205 = test: Cytotoxicity against human COLO205 cells assessed as cell growth at 10 uM incubated for 48 hrs by sulforhodamine B assay relative to control; details: COLO 205, 48 h, read-out: Activity
MDA-MB-435 = test: Cytotoxicity against human MDA-MB-435 cells assessed as cell growth at 0.01 uM incubated for 48 hrs by sulforhodamine B assay relative to control; details: MDA-MB-435, 48 h, read-out: Activity
786-0 = test: Cytotoxicity against human 786-0 cells assessed as cell growth at 0.01 uM incubated for 48 hrs by sulforhodamine B assay relative to control; details: 786-0, 48 h, read-out: Activity
HL-60(TB) [1] = test: Cytotoxicity against human HL-60(TB) cells assessed as cell growth at 1 uM incubated for 48 hrs by sulforhodamine B assay relative to control; details: HL-60, 48 h, read-out: Activity
HCC 2998 = test: Cytotoxicity against human HCC2998 cells assessed as cell growth at 100 uM incubated for 48 hrs by sulforhodamine B assay relative to control; details: HCC 2998, 48 h, read-out: Activity
DU-145 = test: Cytotoxicity against human DU145 cells assessed as cell growth at 1 uM incubated for 48 hrs by sulforhodamine B assay relative to control; details: DU-145, 48 h, read-out: Activity
Malme-3M = test: Cytotoxicity against human MALME-3M cells assessed as cell growth at 1 uM incubated for 48 hrs by sulforhodamine B assay relative to control; details: read-out: Activity
SK-MEL-28 = test: Cytotoxicity against human SK-MEL-28 cells assessed as cell growth at 10 uM incubated for 48 hrs by sulforhodamine B assay relative to control; details: SK-MEL-28, 48 h, read-out: Activity
K562 = test: Cytotoxicity against human K562 cells assessed as cell growth at 0.01 uM incubated for 48 hrs by sulforhodamine B assay relative to control; details: K562, 48 h, read-out: Activity
SF-539 [2] = test: Cytotoxicity against human SF539 cells assessed as cell growth at 1 uM incubated for 48 hrs by sulforhodamine B assay relative to control; details: SF-539, 48 h, read-out: Activity
SW-620 [3] = test: Cytotoxicity against human SW620 cells assessed as cell growth at 0.01 uM incubated for 48 hrs by sulforhodamine B assay relative to control; details: SW-620, 48 h, read-out: Activity
Hs-578T = test: Cytotoxicity against human Hs 578T cells assessed as cell growth at 0.1 uM incubated for 48 hrs by sulforhodamine B assay relative to control; details: read-out: Activity
MCF7 = test: Cytotoxicity against human MCF7 cells assessed as cell growth at 10 uM incubated for 48 hrs by sulforhodamine B assay relative to control; details: MCF7, 48 h, read-out: Activity
SNB-19 = test: Cytotoxicity against human SNB19 cells assessed as cell growth at 0.1 uM incubated for 48 hrs by sulforhodamine B assay relative to control; details: SNB-19, 48 h, read-out: Activity
NCI-H226 [4] = test: Cytotoxicity against human NCI-H226 cells assessed as cell growth at 0.01 uM incubated for 48 hrs by sulforhodamine B assay relative to control; details: NCI-H226, 48 h, read-out: Activity
ACHN = test: Cytotoxicity against human ACHN cells assessed as cell growth at 100 uM incubated for 48 hrs by sulforhodamine B assay relative to control; details: read-out: Activity
UACC-62 = test: Cytotoxicity against human UACC62 cells assessed as cell growth at 100 uM incubated for 48 hrs by sulforhodamine B assay relative to control; details: UACC-62, 48 h, read-out: Activity
SR = test: Cytotoxicity against human SR cells incubated for 48 hrs by sulforhodamine B assay
SNB-75 = test: Cytotoxicity against human SNB75 cells assessed as cell growth at 100 uM incubated for 48 hrs by sulforhodamine B assay relative to control; details: SNB-75, 48 h, read-out: Activity
RXF 393 = test: Cytotoxicity against human RXF393 cells assessed as cell growth at 0.1 uM incubated for 48 hrs by sulforhodamine B assay relative to control; details: RXF 393, 48 h, read-out: Activity
HCT-116 = test: Cytotoxicity against human HCT116 cells assessed as cell growth at 10 uM incubated for 48 hrs by sulforhodamine B assay relative to control; details: HCT-116, 48 h, read-out: Activity
HCT-15 [5] = test: Cytotoxicity against human HCT15 cells assessed as cell growth at 0.01 uM incubated for 48 hrs by sulforhodamine B assay relative to control; details: HCT-15, 48 h, read-out: Activity
HL-60(TB) [6] = test: Cytotoxicity against human HL-60(TB) cells assessed as cell growth at 100 uM incubated for 48 hrs by sulforhodamine B assay relative to control; details: HL-60, 48 h, read-out: Activity
MDA-MB-468 = test: Cytotoxicity against human MDA-MB-468 cells assessed as cell growth at 100 uM incubated for 48 hrs by sulforhodamine B assay relative to control; details: MDA-MB-468, 48 h, read-out: Activity
SW-620 [7] = test: Cytotoxicity against human SW620 cells assessed as cell growth at 100 uM incubated for 48 hrs by sulforhodamine B assay relative to control; details: SW-620, 48 h, read-out: Activity
NCI-H226 [8] = test: Cytotoxicity against human NCI-H226 cells assessed as cell growth at 1 uM incubated for 48 hrs by sulforhodamine B assay relative to control; details: NCI-H226, 48 h, read-out: Activity
SF-539 [9] = test: Cytotoxicity against human SF539 cells incubated for 48 hrs by sulforhodamine B assay; details: SF-539, 48 h
EKVX = test: Cytotoxicity against human EKVX cells assessed as cell growth at 100 uM incubated for 48 hrs by sulforhodamine B assay relative to control; details: read-out: Activity
IGROV-1 = test: Cytotoxicity against human IGROV1 cells assessed as cell growth at 0.01 uM incubated for 48 hrs by sulforhodamine B assay relative to control; details: IGROV-1, 48 h, read-out: Activity
A549 = test: Cytotoxicity against human A549/ATCC cells assessed as cell growth at 10 uM incubated for 48 hrs by sulforhodamine B assay relative to control; details: A549, 48 h, read-out: Activity
HCT-15 [10] = test: Cytotoxicity against human HCT15 cells assessed as cell growth at 10 uM incubated for 48 hrs by sulforhodamine B assay relative to control; details: HCT-15, 48 h, read-out: Activity
MDA-MB-231 = test: Cytotoxicity against human MDA-MB-231 cells assessed as cell growth at 100 uM incubated for 48 hrs by sulforhodamine B assay relative to control; details: MDA-MB-231, 48 h, read-out: Activity
SK-MEL-5 = test: Cytotoxicity against human SK-MEL-5 cells assessed as cell growth at 10 uM incubated for 48 hrs by sulforhodamine B assay relative to control; details: SK-MEL-5, 48 h, read-out: Activity

Structure (SMILES): COc1ccc(-c2nocc2-c2cc(OC)c(OC)c(OC)c2)cc1
- growth at 10 µM (COLO 205): -27%
- growth at 0.01 µM (MDA-MB-435): 79%
- growth at 0.01 µM (786-0): 85%
- growth at 1 µM (HL-60(TB) [1]): -17%
- growth at 100 µM (HCC 2998): -47%
- growth at 1 µM (DU-145): 17%
- growth at 1 µM (Malme-3M): 46%
- growth at 10 µM (SK-MEL-28): 46%
- growth at 0.01 µM (K562): 103%
- growth at 1 µM (SF-539 [2]): 1%
- growth at 0.01 µM (SW-620 [3]): 94%
- growth at 0.1 µM (Hs-578T): 77%
- growth at 10 µM (MCF7): 14%
- growth at 0.1 µM (SNB-19): 69%
- growth at 0.01 µM (NCI-H226 [4]): 100%
- growth at 100 µM (ACHN): -13%
- growth at 100 µM (UACC-62): -38%
- GI50 (SR; read-out: GI50): 0.0717 µM
- CC50 (SR; read-out: LC50 (the source's name)): > 100 µM
- TGI (SR; read-out: TGI): 58.3 µM
- GI50 (SR; read-out: pGI50 (converted)): 0.0724 µM
- CC50 (SR; read-out: pLC50 (the source's name) (converted)): > 100 µM
- TGI (SR; read-out: pTGI (converted)): 58.9 µM
- growth at 100 µM (SNB-75): 9%
- growth at 0.1 µM (RXF 393): 86%
- growth at 10 µM (HCT-116): 6%
- growth at 0.01 µM (HCT-15 [5]): 88%
- growth at 100 µM (HL-60(TB) [6]): -15%
- growth at 100 µM (MDA-MB-468): -19%
- growth at 100 µM (SW-620 [7]): 7%
- growth at 1 µM (NCI-H226 [8]): 75%
- GI50 (SF-539 [9]; read-out: GI50): 0.173 µM
- LC50 (concentration killing 50% of cells) (SF-539 [9]; read-out: LC50): > 100 µM
- TGI (SF-539 [9]; read-out: TGI): 13.7 µM
- GI50 (SF-539 [9]; read-out: pGI50 (converted)): 0.174 µM
- LC50 (concentration killing 50% of cells) (SF-539 [9]; read-out: pLC50 (converted)): > 100 µM
- TGI (SF-539 [9]; read-out: pTGI (converted)): 13.8 µM
- growth at 100 µM (EKVX): 7%
- growth at 0.01 µM (IGROV-1): 97%
- growth at 10 µM (A549): 29%
- growth at 10 µM (HCT-15 [10]): 11%
- growth at 100 µM (MDA-MB-231): -15%
- growth at 10 µM (SK-MEL-5): -11%
